Test results from US8367328B2, “Method for synthesizing DNA” (Takara Bio Inc., priority 1998, dated 2013).

Biological target: T1, Pfu DNA Polymerase II (Pyrococcus furiosus, UniProt P81409+P81412)
T1 construct: made in house; host or cells: Escherichia coli JM109/pFU1001 (FERM BP-5579)
T1 sequence (P81409 1-1263): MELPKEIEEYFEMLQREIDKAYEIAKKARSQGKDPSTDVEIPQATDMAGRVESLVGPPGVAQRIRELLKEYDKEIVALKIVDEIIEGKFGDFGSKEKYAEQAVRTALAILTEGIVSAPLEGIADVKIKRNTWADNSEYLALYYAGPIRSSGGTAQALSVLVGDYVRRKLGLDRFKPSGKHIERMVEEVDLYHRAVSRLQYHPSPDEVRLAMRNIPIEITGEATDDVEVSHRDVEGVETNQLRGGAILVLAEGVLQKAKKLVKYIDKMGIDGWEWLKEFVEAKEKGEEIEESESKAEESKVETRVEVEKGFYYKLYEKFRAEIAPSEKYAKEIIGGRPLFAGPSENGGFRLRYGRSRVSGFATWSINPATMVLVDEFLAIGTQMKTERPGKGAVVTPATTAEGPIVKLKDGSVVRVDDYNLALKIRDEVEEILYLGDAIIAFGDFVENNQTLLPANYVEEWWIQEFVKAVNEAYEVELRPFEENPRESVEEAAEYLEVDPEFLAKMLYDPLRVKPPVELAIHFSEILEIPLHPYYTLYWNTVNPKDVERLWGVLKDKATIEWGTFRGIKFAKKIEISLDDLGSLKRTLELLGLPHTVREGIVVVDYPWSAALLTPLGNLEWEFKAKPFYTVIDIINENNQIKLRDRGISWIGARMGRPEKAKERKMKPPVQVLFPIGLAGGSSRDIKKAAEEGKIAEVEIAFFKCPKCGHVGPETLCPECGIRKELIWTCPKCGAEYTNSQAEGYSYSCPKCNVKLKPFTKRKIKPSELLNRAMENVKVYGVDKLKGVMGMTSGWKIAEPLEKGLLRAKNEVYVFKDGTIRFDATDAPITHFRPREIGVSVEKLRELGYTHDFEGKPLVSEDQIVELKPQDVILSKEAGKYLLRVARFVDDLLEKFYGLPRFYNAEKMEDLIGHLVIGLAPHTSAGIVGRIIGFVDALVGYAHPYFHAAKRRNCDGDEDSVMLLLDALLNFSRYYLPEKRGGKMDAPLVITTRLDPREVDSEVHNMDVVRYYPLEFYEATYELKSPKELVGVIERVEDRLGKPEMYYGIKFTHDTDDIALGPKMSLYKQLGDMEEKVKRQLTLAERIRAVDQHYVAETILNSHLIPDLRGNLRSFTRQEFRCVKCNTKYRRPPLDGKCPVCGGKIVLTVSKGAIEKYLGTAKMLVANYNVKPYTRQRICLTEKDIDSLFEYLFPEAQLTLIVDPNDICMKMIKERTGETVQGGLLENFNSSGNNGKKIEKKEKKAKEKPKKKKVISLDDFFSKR
T1 sequence (P81412 1-613): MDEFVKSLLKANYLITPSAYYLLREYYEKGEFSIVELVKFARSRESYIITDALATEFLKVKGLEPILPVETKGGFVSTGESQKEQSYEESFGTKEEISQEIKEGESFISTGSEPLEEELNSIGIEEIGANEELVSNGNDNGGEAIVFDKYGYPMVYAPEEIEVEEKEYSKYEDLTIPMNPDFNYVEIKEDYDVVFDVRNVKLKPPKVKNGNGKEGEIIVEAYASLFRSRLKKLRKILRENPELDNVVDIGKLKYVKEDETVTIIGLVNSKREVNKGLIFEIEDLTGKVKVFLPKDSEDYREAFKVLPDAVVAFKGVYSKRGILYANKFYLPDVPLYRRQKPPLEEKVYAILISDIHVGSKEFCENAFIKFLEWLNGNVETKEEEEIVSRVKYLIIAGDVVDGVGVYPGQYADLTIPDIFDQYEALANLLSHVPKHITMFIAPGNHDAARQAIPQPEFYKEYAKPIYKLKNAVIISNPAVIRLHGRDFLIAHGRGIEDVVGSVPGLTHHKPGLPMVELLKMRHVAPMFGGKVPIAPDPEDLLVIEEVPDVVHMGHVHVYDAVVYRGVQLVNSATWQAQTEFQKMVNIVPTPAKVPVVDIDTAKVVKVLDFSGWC
Experiment: PCR with Pfu DNA Polymerase II in the presence of acidic substances (λDNA template)
Type: biochemical
Conditions: 1 kb fragment, 500 pg λDNA, primers λ1/λ3, 30 cycles 98°C 5 s–66°C 15 s
Protocol: A reaction mixture comprising λDNA as a template, primers λ1 and λ3 as a primer pair, and Pfu DNA Polymerase II as DNA polymerase was prepared, and PCR was carried out. The composition of the reaction mixture is as follows.
10 mM Tris-hydrochloric acid (pH 9.2), 75 mM potassium chloride, 6 mM magnesium chloride, 0.4 mM each of dATP, dCTP, dGTP and dTTP, 0.01% BSA, 1.25 U of Pfu DNA Polymerase II, 500 pg of λDNA, and 5 pmol each of primers λ1 and λ3 (a final volume being 25 μl). […]
Using the sulfated-fucose-containing Polysaccharide-F obtained in Example 6 described above, dextran sulfate powder (manufactured by Onco), or sodium alginate (100 to 150 centipoises, manufactured by Wako Pure Chemicals), the effects of these acidic substances on the activity of Pfu DNA Polymerase II were examined. A reaction mixture comprising λDNA as a template, primers λ1 and λ2 as a primer pair, and Pfu DNA Polymerase II as DNA polymerase was prepared, and PCR was carried out. The composition of the reaction mixture is as follows.
10 mM Tris-hydrochloric acid, pH 9.2, 75 mM potassium chloride, 6 mM magnesium chloride, 0.4 mM each of dATP, dCTP, dGTP and dTTP, 0.01% BSA, 1.25 U of Pfu DNA Polymerase II, 100 pg of λDNA, and 5 pmol each of primers λ1 and λ2 (a final volume being 25 μl). Further, 10 ng of the sulfated-fucose-containing polysaccharide-F, 10 ng of dextran sulfate powder, or 1 μg of sodium alginate was respectively added to the above reaction mixture.
The reaction in 25 cycles was carried out for each of these reaction mixtures, wherein one cycle of reaction comprises a process consisting of 98° C., 5 seconds—66° C., 15 seconds. Thereafter, 5 μl of the resulting reaction mixture was subjected to electrophoresis on 1% agarose gel containing ethidium bromide in an amount of 0.00005%, whereby an amplified fragment was confirmed.
Further, studies were conducted on the effects of the sulfated-fucose-containing polysaccharide-F obtained in Example 6 described above, the sulfated-fucose-containing polysaccharide-U obtained in Example 7 described above, or sodium polyglutamate (manufactured by Sigma) as an acidic substance. A reaction mixture for PCR was prepared in the same manner as described above except for changing the amount of template λDNA to 500 pg and the primer pairs to primers λ1 and λ3. Five nanograms of the sulfated-fucose-containing polysaccharide-F, 5 ng, 10 ng, 20 ng or 30 ng each of the sulfated-fucose-containing polysaccharide-U, or 250 ng, 500 ng, 750 ng or 1000 ng each of sodium polyglutamate was respectively added to the above reaction mixture.
The reaction was carried out in 30 cycles, wherein one cycle of reaction comprises a process consisting of 98° C., 5 seconds—66° C., 15 seconds. After the termination of the reaction, 5 μl of the resulting reaction mixture was subjected to electrophoresis on 1% agarose gel containing ethidium bromide in an amount of 0.00005%, whereby an amplified fragment was confirmed.
Using the sulfated-fucose-containing polysaccharide-F obtained in Example 6 described above, the effects on the activity of Pfu DNA Polymerase II were examined. A reaction mixture comprising λDNA as a template, primers λ1 and λ2 as a primer pair, and Pfu DNA Polymerase II as DNA polymerase was prepared, and PCR was carried out. The composition of the reaction mixture is as follows.
10 mM Tris-hydrochloric acid, pH 9.2, 75 mM potassium chloride, 6 mM magnesium chloride, 0.4 mM each of dATP, dCTP, dGTP and dTTP, 0.01% BSA, 1.25 U of Pfu DNA Polymerase II, 500 pg of λDNA, and 5 pmol each of primers λ1 and λ2 (a final volume being 25 μl). Further, 10 ng of the sulfated-fucose-containing polysaccharide-F was respectively added to the above reaction mixture.
The reaction in 30 cycles was carried out for each of these reaction mixtures, wherein one cycle of reaction comprises a process consisting of 98° C., 5 seconds—66° C., 15 seconds. […]

## sodium polyglutamate
Amount added 250 ng
  Amplification Results: + (Amplification being observed)
Amount added 500 ng
  Amplification Results: + (Amplification being observed)
Amount added 750 ng
  Amplification Results: ++ (Intensive amplification being observed)
Amount added 1000 ng
  Amplification Results: + (Amplification being observed)
